Measured values from US12559529B2, “NPY2 receptor agonists” (Boehringer Ingelheim International GmbH, priority 2019, dated 2026).
*1 amine or outer side, *2 acyl side, *3 side chain or, on linkers, in order; H or OH if unused. Where a SMILES comes first, the peptide text is derived from it. Side-chain parts run from the residue outwards. The star is where a group is joined. C18 diacid = O=C(O)CCCCCCCCCCCCCCCCC(=O)*; γGlu = O=C(O)[C@H](CCC(=O)[*:2])N[*:1]; Isovaleryl = CC(C)CC(=O)*; AEEA = NCCOCCOCC(=O)O

Biological target: T1, Human Neuropeptide Y2 Receptor (Homo sapiens, UniProt P49146)
T1 construct: purchased CHEMICON HTS066M
T1 sequence (P49146 1-381): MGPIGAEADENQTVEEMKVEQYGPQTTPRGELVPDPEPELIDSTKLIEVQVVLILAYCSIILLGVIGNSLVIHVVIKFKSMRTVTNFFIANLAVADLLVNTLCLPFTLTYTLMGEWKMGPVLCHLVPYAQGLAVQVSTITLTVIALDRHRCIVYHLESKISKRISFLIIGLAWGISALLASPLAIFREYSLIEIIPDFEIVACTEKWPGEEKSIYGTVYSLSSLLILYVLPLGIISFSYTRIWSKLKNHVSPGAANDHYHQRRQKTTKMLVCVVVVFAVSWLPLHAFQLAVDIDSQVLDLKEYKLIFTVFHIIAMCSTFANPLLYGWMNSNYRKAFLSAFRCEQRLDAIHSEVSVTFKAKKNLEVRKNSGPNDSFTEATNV
Test: Radioligand binding competition assay (RLB)
Details: Table 3; human 125I-PYY (1-36) 0.02 nM, Y2 receptor membranes; read-out: Ki
Outline: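 Competition binding on human Y2 receptor membranes, 0.5 μg protein/well, in 50 mM HEPES, 5 mM MgCl2, 1 mM CaCl2, pH 7.4, 0.2% ovalbumin; peptides diluted from 1 mM DMSO stocks.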

SMILES | Ki
CC(C)CC(=O)N[C@@H](C)C(=O)N1CCC[C@H]1C(=O)N[C@@H](CCC(=O)O)C(=O)N[C@@H](CCCCNC(=O)COCCOCCNC(=O)COCCOCCNC(=O)CC[C@H](NC(=O)CCCCCCCCCCCCCCCCC(=O)O)C(=O)O)C(=O)N1CCC[C@H]1C(=O)N1CCC[C@H]1C(=O)N[C@@H](CCC(=O)O)C(=O)N[C@@H](CC(=O)O)C(=O)N[C@@H](C)C(=O)N[C@H](C(=O)N1CCC[C@H]1C(=O)N[C@@H](CCC(=O)O)C(=O)N[C@@H](CCC(=O)O)C(=O)N[C@@H](CC(C)C)C(=O)N[C@@H](CCC(N)=O)C(=O)N[C@@H](CCCNC(=N)N)C(=O)N[C@@H](Cc1ccc(O)cc1)C(=O)N[C@@H](Cc1ccc(O)cc1)C(=O)N[C@H](C(=O)N[C@@H](CO)C(=O)N[C@@H](CC(C)C)C(=O)N[C@@H](CCCNC(=N)N)C(=O)N[C@@H](Cc1c[nH]cn1)C(=O)N[C@@H](Cc1ccc(O)cc1)C(=O)N[C@@H](Cc1ccc(O)cc1)C(=O)N[C@@H](CC(N)=O)C(=O)N[C@@H](Cc1c[nH]c2ccccc12)C(=O)N[C@@H](CC(C)C)C(=O)N[C@H](C(=O)N[C@@H](CCCNC(=N)N)C(=O)N[C@@H](CCC(N)=O)C(=O)N[C@@H](CCCNC(=N)N)C(=O)N[C@@H](Cc1ccc(O)cc1)C(N)=O)[C@@H](C)O)C(C)C)[C@@H](C)O [Compound 26, N{alpha-4}-(3-methylbutanoyl)-N{epsilon-7}-[2-(2-{2-[2-(2-{2-[(4S)-4-carboxy-4-(17-carboxyheptadecanamido)butanamido]ethoxy}ethoxy)acetamido]ethoxy}ethoxy)acetamido]-[4A,7K,9P,13T,18Q,22V,28Y,30W,31L]hPYY (4-36)] | 0.77 nM
CC(C)CC(=O)N[C@@H](C)C(=O)N1CCC[C@H]1C(=O)N[C@@H](CCC(=O)O)C(=O)N[C@@H](CCCCNC(=O)COCCOCCNC(=O)COCCOCCNC(=O)CC[C@H](NC(=O)CCCCCCCCCCCCCCCCC(=O)O)C(=O)O)C(=O)N1CCC[C@H]1C(=O)N1CCC[C@H]1C(=O)N[C@@H](CCC(=O)O)C(=O)N[C@@H](CC(=O)O)C(=O)N[C@@H](C)C(=O)N[C@@H](CCC(=O)O)C(=O)N1CCC[C@H]1C(=O)N[C@@H](CCC(=O)O)C(=O)N[C@@H](CCC(=O)O)C(=O)N[C@@H](CC(C)C)C(=O)N[C@@H](CCC(N)=O)C(=O)N[C@@H](CCCNC(=N)N)C(=O)N[C@@H](Cc1ccc(O)cc1)C(=O)N[C@@H](Cc1ccc(O)cc1)C(=O)N[C@H](C(=O)N[C@@H](CO)C(=O)N[C@@H](CC(C)C)C(=O)N[C@@H](CCCNC(=N)N)C(=O)N[C@@H](Cc1c[nH]cn1)C(=O)N[C@@H](Cc1ccc(O)cc1)C(=O)N[C@@H](Cc1ccc(O)cc1)C(=O)N[C@@H](CC(N)=O)C(=O)N[C@@H](Cc1c[nH]c2ccccc12)C(=O)N[C@@H](CC(C)C)C(=O)N[C@H](C(=O)N[C@@H](CCCNC(=N)N)C(=O)N[C@@H](CCC(N)=O)C(=O)N[C@@H](CCCNC(=N)N)C(=O)N[C@@H](Cc1ccc(O)cc1)C(N)=O)[C@@H](C)O)C(C)C [Compound 27, N{alpha-4}-(3-methylbutanoyl)-N{epsilon-7}-[2-(2-{2-[2-(2-{2-[(4S)-4-carboxy-4-(17-carboxyheptadecanamido)butanamido]ethoxy}ethoxy)acetamido]ethoxy}ethoxy)acetamido]-[4A,7K,9P,13E,18Q,22V,28Y,30W,31L]hPYY (4-36)] | 0.96 nM
CC(C)CC(=O)N[C@@H](C)C(=O)N1CCC[C@H]1C(=O)N[C@@H](CCC(=O)O)C(=O)N[C@@H](CCCCNC(=O)COCCOCCNC(=O)COCCOCCNC(=O)CC[C@H](NC(=O)CCCCCCCCCCCCCCCCC(=O)O)C(=O)O)C(=O)N1CCC[C@H]1C(=O)N[C@@H](CCC(=O)O)C(=O)N[C@@H](CCC(=O)O)C(=O)N[C@@H](CC(=O)O)C(=O)N[C@H](C(=O)N[C@@H](CO)C(=O)N1CCC[C@H]1C(=O)N[C@@H](CCC(=O)O)C(=O)N[C@@H](CCC(=O)O)C(=O)N[C@@H](CC(C)C)C(=O)N[C@@H](CCC(N)=O)C(=O)N[C@@H](CCCNC(=N)N)C(=O)N[C@@H](Cc1ccc(O)cc1)C(=O)N[C@@H](Cc1ccc(O)cc1)C(=O)N[C@H](C(=O)N[C@@H](CCC(=O)O)C(=O)N[C@@H](CC(C)C)C(=O)N[C@@H](CCCNC(=N)N)C(=O)N[C@@H](Cc1c[nH]cn1)C(=O)N[C@@H](Cc1ccc(O)cc1)C(=O)N[C@@H](Cc1ccc(O)cc1)C(=O)N[C@@H](CC(N)=O)C(=O)N[C@@H](Cc1c[nH]c2ccccc12)C(=O)N[C@@H](CC(C)C)C(=O)N[C@H](C(=O)N[C@@H](CCCNC(=N)N)C(=O)N[C@@H](CCC(N)=O)C(=O)N[C@@H](CCCNC(=N)N)C(=O)N[C@@H](Cc1ccc(O)cc1)C(N)=O)[C@@H](C)O)C(C)C)[C@@H](C)O [Compound 28, N{alpha-4}-(3-methylbutanoyl)-N{epsilon-7}-[2-(2-{2-[2-(2-{2-[(4S)-4-carboxy-4-(17-carboxyheptadecanamido)butanamido]ethoxy}ethoxy)acetamido]ethoxy}ethoxy)acetamido]-[4A,7K,9E,12T,18Q,22V,23E,28Y,30W,31L]hPYY (4-36)] | 6.03 nM
CC(C)CC(=O)N[C@@H](C)C(=O)N1CCC[C@H]1C(=O)N[C@@H](CCC(=O)O)C(=O)N[C@@H](CCCCNC(=O)COCCOCCNC(=O)COCCOCCNC(=O)CC[C@H](NC(=O)CCCCCCCCCCCCCCCCC(=O)O)C(=O)O)C(=O)N1CCC[C@H]1C(=O)N[C@@H](CCC(=O)O)C(=O)N[C@@H](CCC(=O)O)C(=O)N[C@@H](CC(=O)O)C(=O)N[C@H](C(=O)N[C@@H](CO)C(=O)N1CCC[C@H]1C(=O)N[C@@H](CCC(=O)O)C(=O)N[C@@H](CCC(=O)O)C(=O)N[C@@H](CC(C)C)C(=O)N[C@@H](CCC(N)=O)C(=O)N[C@@H](CCCNC(=N)N)C(=O)N[C@@H](Cc1ccc(O)cc1)C(=O)N[C@@H](CCC(=O)O)C(=O)N[C@H](C(=O)N[C@@H](CO)C(=O)N[C@@H](CC(C)C)C(=O)N[C@@H](CCCNC(=N)N)C(=O)N[C@@H](Cc1c[nH]cn1)C(=O)N[C@@H](Cc1ccc(O)cc1)C(=O)N[C@@H](Cc1ccc(O)cc1)C(=O)N[C@@H](CC(N)=O)C(=O)N[C@@H](Cc1c[nH]c2ccccc12)C(=O)N[C@@H](CC(C)C)C(=O)N[C@H](C(=O)N[C@@H](CCCNC(=N)N)C(=O)N[C@@H](CCC(N)=O)C(=O)N[C@@H](CCCNC(=N)N)C(=O)N[C@@H](Cc1ccc(O)cc1)C(N)=O)[C@@H](C)O)C(C)C)[C@@H](C)O [Compound 32, N{alpha-4}-(3-methylbutanoyl)-N{epsilon-7}-[2-(2-{2-[2-(2-{2-[(4S)-4-carboxy-4-(17-carboxyheptadecanamido)butanamido]ethoxy}ethoxy)acetamido]ethoxy}ethoxy)acetamido]-[4A,7K,9E,12T,18Q,21E,22V,28Y,30W,31L]hPYY (4-36)] (Isovaleryl-APEK([AEEA-AEEA-γGlu-C18 diacid])PEEDTSPEELQRYEVSLRHYYNWLTRQRY-NH2) | 4.84 nM
CC(C)CC(=O)N[C@@H](C)C(=O)N1CCC[C@H]1C(=O)N[C@@H](CCC(=O)O)C(=O)N[C@@H](CCCCNC(=O)COCCOCCNC(=O)COCCOCCNC(=O)CC[C@H](NC(=O)CCCCCCCCCCCCCCCCC(=O)O)C(=O)O)C(=O)N1CCC[C@H]1C(=O)N[C@@H](CCC(=O)O)C(=O)N[C@@H](CCC(=O)O)C(=O)N[C@@H](CC(=O)O)C(=O)N[C@@H](C)C(=O)N[C@@H](CO)C(=O)N1CCC[C@H]1C(=O)N[C@@H](CCC(=O)O)C(=O)N[C@@H](CCC(=O)O)C(=O)N[C@@H](CC(C)C)C(=O)N[C@@H](CCC(N)=O)C(=O)N[C@@H](CCCNC(=N)N)C(=O)N[C@@H](Cc1ccc(O)cc1)C(=O)N[C@@H](Cc1ccc(O)cc1)C(=O)N[C@H](C(=O)N[C@@H](CO)C(=O)N[C@H](C(=O)N[C@@H](CCCNC(=N)N)C(=O)N[C@@H](Cc1c[nH]cn1)C(=O)N[C@@H](Cc1ccc(O)cc1)C(=O)N[C@@H](Cc1ccc(O)cc1)C(=O)N[C@@H](CC(N)=O)C(=O)N[C@@H](Cc1c[nH]c2ccccc12)C(=O)N[C@@H](CC(C)C)C(=O)N[C@H](C(=O)N[C@@H](CCCNC(=N)N)C(=O)N[C@@H](CCC(N)=O)C(=O)N[C@@H](CCCNC(=N)N)C(=O)N[C@@H](Cc1ccc(O)cc1)C(N)=O)[C@@H](C)O)[C@@H](C)O)C(C)C [Compound 34, N{alpha-4}-(3-methylbutanoyl)-N{epsilon-7}-[2-(2-{2-[2-(2-{2-[(4S)-4-carboxy-4-(17-carboxyheptadecanamido)butanamido]ethoxy}ethoxy)acetamido]ethoxy}ethoxy)acetamido]-[4A,7K,9E,18Q,22V,24T,28Y,30W,31L]hPYY (4-36)] | 6.4 nM
